Key:
Test in all cases: relative viability (nuclei count vs DMSO), 5 days (fraction); higher = more cells survive
COR-L23 = test system: COR-L23
How it was run: (§1)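 After 5 days of treatment, lung cancer cells in 1536-well plates were fixed and stained in a single step (final 0.05% Triton X-100, 1% formaldehyde, 1 ug/ml Hoechst) and their nuclei counted on 4× images. Treatment had been applied by pin tool the day after seeding as one drug alone or as a fixed anchor-drug dose with five library-drug doses (not always all listed) in √10 steps. Relative viability is the nuclei count of treated wells divided by that of vehicle wells, and values are medians of duplicate plates.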

A-427 = test system: A-427
How it was run: as §1

SW 1573 = test system: SW 1573
How it was run: as §1

PC-14 = test system: PC-14
How it was run: as §1

NCI-H1793 = test system: NCI-H1793
How it was run: as §1

HCC-44 = test system: HCC-44
How it was run: as §1

NCI-H1563 = test system: NCI-H1563
How it was run: as §1

NCI-H2347 = test system: NCI-H2347
How it was run: as §1

H3255 = test system: H3255
How it was run: as §1

PC-3 [JPC-3] = test system: PC-3 [JPC-3]
How it was run: as §1

201T = test system: 201T
How it was run: as §1

NCI-H727 = test system: NCI-H727
How it was run: as §1

NCI-H650 = test system: NCI-H650
How it was run: as §1

NCI-H838 = test system: NCI-H838
How it was run: as §1

LK-2 = test system: LK-2
How it was run: as §1

NCI-H1650 = test system: NCI-H1650
How it was run: as §1

LCLC-103H = test system: LCLC-103H
How it was run: as §1

LU99A = test system: LU99A
How it was run: as §1

LCLC-97TM1 = test system: LCLC-97TM1
How it was run: as §1

NCI-H23 = test system: NCI-H23
How it was run: as §1

NCI-H1944 = test system: NCI-H1944
How it was run: as §1

NCI-H460 = test system: NCI-H460
How it was run: as §1

SW 900 = test system: SW 900
How it was run: as §1

SMILES: CC1(C)CCC(c2ccc(Cl)cc2)=C(CN2CCN(c3ccc(C(=O)NS(=O)(=O)c4ccc(N[C@H](CCN5CCOCC5)CSc5ccccc5)c(S(=O)(=O)C(F)(F)F)c4)cc3)CC2)C1 [Navitoclax] + CCNC(=O)c1noc(-c2cc(C(C)C)c(O)cc2O)c1-c1ccc(CN2CCOCC2)cc1 [Luminespib] (partner 0.01 µM)
- relative viability (COR-L23; first compound 0.005 µM): 0.605
- relative viability (COR-L23; first compound 0.01581 µM): 0.606
- relative viability (COR-L23; first compound 0.05 µM): 0.738
- relative viability (COR-L23; first compound 0.1581 µM): 0.595
- relative viability (COR-L23; first compound 0.5 µM): 0.666
- relative viability (A-427; first compound 0.005 µM): 0.902
- relative viability (A-427; first compound 0.01581 µM): 0.833
- relative viability (A-427; first compound 0.05 µM): 0.804
- relative viability (A-427; first compound 0.1581 µM): 0.908
- relative viability (A-427; first compound 0.5 µM): 0.948
- relative viability (SW 1573; first compound 0.005 µM): 0.145
- relative viability (SW 1573; first compound 0.01581 µM): 0.213
- relative viability (SW 1573; first compound 0.05 µM): 0.429
- relative viability (SW 1573; first compound 0.1581 µM): 0.212
- relative viability (SW 1573; first compound 0.5 µM): 0.206
- relative viability (PC-14; first compound 0.005 µM): 0.223
- relative viability (PC-14; first compound 0.01581 µM): 0.154
- relative viability (PC-14; first compound 0.05 µM): 0.23
- relative viability (PC-14; first compound 0.1581 µM): 0.313
- relative viability (PC-14; first compound 0.5 µM): 0.146
- relative viability (NCI-H1793; first compound 0.005 µM): 0.262
- relative viability (NCI-H1793; first compound 0.01581 µM): 0.177
- relative viability (NCI-H1793; first compound 0.1581 µM): 0.216
- relative viability (NCI-H1793; first compound 0.5 µM): 0.17
- relative viability (HCC-44; first compound 0.05 µM): 1.33
- relative viability (HCC-44; first compound 0.5 µM): 0.823
- relative viability (NCI-H1563; first compound 0.005 µM): 0.53
- relative viability (NCI-H1563; first compound 0.01581 µM): 0.507
- relative viability (NCI-H1563; first compound 0.05 µM): 0.485
- relative viability (NCI-H1563; first compound 0.1581 µM): 0.557
- relative viability (NCI-H1563; first compound 0.5 µM): 0.475
- relative viability (NCI-H2347; first compound 0.005 µM): 0.467
- relative viability (NCI-H2347; first compound 0.01581 µM): 0.62
- relative viability (NCI-H2347; first compound 0.1581 µM): 0.372
- relative viability (NCI-H2347; first compound 0.5 µM): 0.312
- relative viability (H3255; first compound 0.005 µM): 0.874
- relative viability (H3255; first compound 0.01581 µM): 0.877
- relative viability (H3255; first compound 0.05 µM): 0.834
- relative viability (H3255; first compound 0.1581 µM): 0.869
- relative viability (H3255; first compound 0.5 µM): 0.741
- relative viability (PC-3 [JPC-3]; first compound 0.005 µM): 0.738
- relative viability (PC-3 [JPC-3]; first compound 0.01581 µM): 0.807
- relative viability (PC-3 [JPC-3]; first compound 0.05 µM): 0.765
- relative viability (PC-3 [JPC-3]; first compound 0.1581 µM): 0.684
- relative viability (PC-3 [JPC-3]; first compound 0.5 µM): 0.724
- relative viability (201T; first compound 0.005 µM): 1.05
- relative viability (201T; first compound 0.01581 µM): 1.1
- relative viability (201T; first compound 0.05 µM): 0.982
- relative viability (201T; first compound 0.1581 µM): 1.03
- relative viability (201T; first compound 0.5 µM): 1.08
- relative viability (NCI-H727; first compound 0.01581 µM): 0.347
- relative viability (NCI-H727; first compound 0.1581 µM): 0.275
- relative viability (NCI-H727; first compound 0.5 µM): 0.28
- relative viability (NCI-H650; first compound 0.005 µM): 0.794
- relative viability (NCI-H650; first compound 0.01581 µM): 0.862
- relative viability (NCI-H650; first compound 0.05 µM): 0.682
- relative viability (NCI-H650; first compound 0.1581 µM): 0.786
- relative viability (NCI-H650; first compound 0.5 µM): 0.827
- relative viability (NCI-H838; first compound 0.005 µM): 0.344
- relative viability (NCI-H838; first compound 0.01581 µM): 0.438
- relative viability (NCI-H838; first compound 0.05 µM): 0.37
- relative viability (NCI-H838; first compound 0.1581 µM): 0.17
- relative viability (NCI-H838; first compound 0.5 µM): 0.239
- relative viability (LK-2; first compound 0.005 µM): 0.204
- relative viability (LK-2; first compound 0.01581 µM): 0.191
- relative viability (LK-2; first compound 0.05 µM): 0.202
- relative viability (LK-2; first compound 0.1581 µM): 0.191
- relative viability (LK-2; first compound 0.5 µM): 0.195
- relative viability (NCI-H1650; first compound 0.005 µM): 0.214
- relative viability (NCI-H1650; first compound 0.01581 µM): 0.21
- relative viability (NCI-H1650; first compound 0.05 µM): 0.167
- relative viability (NCI-H1650; first compound 0.1581 µM): 0.206
- relative viability (NCI-H1650; first compound 0.5 µM): 0.192
- relative viability (LCLC-103H; first compound 0.005 µM): 1.04
- relative viability (LCLC-103H; first compound 0.01581 µM): 1.03
- relative viability (LCLC-103H; first compound 0.05 µM): 1.08
- relative viability (LCLC-103H; first compound 0.1581 µM): 1.02
- relative viability (LCLC-103H; first compound 0.5 µM): 0.884
- relative viability (LU99A; first compound 0.005 µM): 0.221
- relative viability (LU99A; first compound 0.01581 µM): 0.217
- relative viability (LU99A; first compound 0.05 µM): 0.154
- relative viability (LU99A; first compound 0.1581 µM): 0.168
- relative viability (LU99A; first compound 0.5 µM): 0.274
- relative viability (LCLC-97TM1; first compound 0.005 µM): 0.74
- relative viability (LCLC-97TM1; first compound 0.01581 µM): 0.8
- relative viability (LCLC-97TM1; first compound 0.05 µM): 0.733
- relative viability (LCLC-97TM1; first compound 0.1581 µM): 0.779
- relative viability (LCLC-97TM1; first compound 0.5 µM): 0.857
- relative viability (NCI-H23; first compound 0.005 µM): 0.223
- relative viability (NCI-H23; first compound 0.01581 µM): 0.218
- relative viability (NCI-H23; first compound 0.05 µM): 0.224
- relative viability (NCI-H23; first compound 0.1581 µM): 0.213
- relative viability (NCI-H23; first compound 0.5 µM): 0.209
- relative viability (NCI-H1944; first compound 0.005 µM): 0.731
- relative viability (NCI-H1944; first compound 0.01581 µM): 0.717
- relative viability (NCI-H1944; first compound 0.05 µM): 0.553
- relative viability (NCI-H1944; first compound 0.1581 µM): 0.733
- relative viability (NCI-H1944; first compound 0.5 µM): 0.665
- relative viability (NCI-H460; first compound 0.005 µM): 0.0372
- relative viability (NCI-H460; first compound 0.01581 µM): 0.0368
- relative viability (NCI-H460; first compound 0.05 µM): 0.0365
- relative viability (NCI-H460; first compound 0.1581 µM): 0.0311
- relative viability (NCI-H460; first compound 0.5 µM): 0.033
- relative viability (SW 900; first compound 0.005 µM): 0.146
- relative viability (SW 900; first compound 0.01581 µM): 0.163
- relative viability (SW 900; first compound 0.05 µM): 0.177
- relative viability (SW 900; first compound 0.1581 µM): 0.199
- relative viability (SW 900; first compound 0.5 µM): 0.132
